Laboratory results from US20220259193A1, “KCNT1 INHIBITORS AND METHODS OF USE” (Praxis Precision Medicines, Inc., priority 2019, published 2022).

Target: T1, KCNT1 (KNa1.1, Slack) (Homo sapiens, UniProt Q5JUK3)
T1 construct: expressed in transfected cells; host or cells: HEK-TREX (tetracycline-inducible HEK cell line)
T1 sequence (Q5JUK3 1-1230): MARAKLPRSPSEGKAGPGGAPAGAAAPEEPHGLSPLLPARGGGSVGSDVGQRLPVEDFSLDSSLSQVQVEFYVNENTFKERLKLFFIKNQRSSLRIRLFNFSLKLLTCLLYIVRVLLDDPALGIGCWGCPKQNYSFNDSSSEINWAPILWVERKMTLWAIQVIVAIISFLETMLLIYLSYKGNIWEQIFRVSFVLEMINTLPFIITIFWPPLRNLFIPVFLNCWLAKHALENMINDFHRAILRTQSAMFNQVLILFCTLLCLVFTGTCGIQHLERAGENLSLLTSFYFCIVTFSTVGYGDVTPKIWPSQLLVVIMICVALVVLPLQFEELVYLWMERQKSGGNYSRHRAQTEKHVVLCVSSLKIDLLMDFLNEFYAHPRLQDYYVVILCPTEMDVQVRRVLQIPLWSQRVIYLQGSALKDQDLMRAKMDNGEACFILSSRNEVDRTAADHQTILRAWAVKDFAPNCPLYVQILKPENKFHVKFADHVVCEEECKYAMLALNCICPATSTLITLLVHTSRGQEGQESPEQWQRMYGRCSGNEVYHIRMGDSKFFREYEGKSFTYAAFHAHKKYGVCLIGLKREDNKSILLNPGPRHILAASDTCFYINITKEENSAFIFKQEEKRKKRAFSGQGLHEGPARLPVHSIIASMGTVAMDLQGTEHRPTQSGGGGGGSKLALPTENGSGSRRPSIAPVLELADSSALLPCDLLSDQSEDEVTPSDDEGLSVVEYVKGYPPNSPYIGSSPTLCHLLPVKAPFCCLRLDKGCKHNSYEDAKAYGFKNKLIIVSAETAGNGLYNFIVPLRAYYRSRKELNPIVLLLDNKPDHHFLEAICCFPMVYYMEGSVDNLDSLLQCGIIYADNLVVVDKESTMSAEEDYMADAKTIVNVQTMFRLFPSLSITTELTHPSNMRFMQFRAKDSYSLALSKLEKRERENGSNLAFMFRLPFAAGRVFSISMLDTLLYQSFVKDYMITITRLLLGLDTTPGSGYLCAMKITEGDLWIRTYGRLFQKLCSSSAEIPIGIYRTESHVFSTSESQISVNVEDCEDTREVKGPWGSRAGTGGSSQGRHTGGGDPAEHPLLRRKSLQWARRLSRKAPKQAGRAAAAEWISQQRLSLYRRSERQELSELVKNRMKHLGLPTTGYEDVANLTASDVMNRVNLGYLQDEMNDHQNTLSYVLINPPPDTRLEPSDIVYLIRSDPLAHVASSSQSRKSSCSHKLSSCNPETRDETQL
Assay: KCNT1 patch clamp assay (SyncroPatch 384PE automated patch clamp)
Type: cell-based
Details: tetracycline inducible HEK-TREX cell line; perforated patch; step from −80 mV to 0 mV; room temperature; read-out: KCNT1-WT IC50
Protocol: KCNT1—Patch Clamp Assay Inhibition of KCNT1 (KNa1.1, Slack) was evaluated using a tetracycline inducible cell line (HEK-TREX). Currents were recorded using the SyncroPatch 384PE automated, patch clamp system. Pulse generation and data collection were performed with PatchController384 V1.3.0 and DataController384 V1.2.1 (Nanion Technologies). The access resistance and apparent membrane capacitance were estimated using built-in protocols. Current were recorded in perforated patch mode (10 μM escin) from a population of cells. […] The cells were allowed to recover in the cell hotel prior to experimentation. Currents were recorded at room temperature. […] The extracellular solution was used as the wash, reference and compound delivery solution. […] Escin is made at a 5 mM stock in water, aliquoted, and stored at −20° C. The compound plate was created at 2× concentrated in the extracellular solution. The compound was diluted to 1:2 when added to the recording well. The amount of DMSO in the extracellular solution was held constant at the level used for the highest tested concentration. A holding potential of −80 mV with a 100 ms step to 0 mV was used. […] The average mean current from 3 sweeps was calculated and the % inhibition of each compound was calculated. The % Inhibition as a function of the compound concentration was fit with a Hill equation to derive IC50, slope, min and max parameters.

IC50, 1000 to 20000 nM:
Cc1nn(C(C)C)cc1C(=O)NC(C)c1nc(-c2cccc(OC(F)F)c2)no1 (stereo not drawn) [Compound 101]
Cn1nc(C2CC2)cc1C(=O)NC(Cc1ccccc1)c1nc(-c2cccc(F)c2)no1 (stereo not drawn) [Compound 49]
C[C@H](NC(=O)c1cc(C(F)(F)F)nn1CC(=O)N(C)C)c1nc(-c2ccnc(C(F)(F)F)c2)no1 [Compound 251, (S)-1-(2-(dimethylamino)-2-oxoethyl)-3-(trifluoromethyl)-N-(1-(3-(2-(trifluoromethyl)pyridin-4-yl)-1,2,4-oxadiazol-5-yl)ethyl)-1H-pyrazole-5-carboxamide]
CO[C@@H](C)[C@H](NC(=O)c1cc(C(F)(F)F)nn1C)c1nc(-c2cccc(F)c2)no1 [Compound 142]
CC(C)[C@@H](NC(=O)c1cc(C2CC2)nn1C)c1nc(-c2cccc(F)c2)no1 [Compound 62]
COc1cccc(-c2noc([C@H](C)NC(=O)OC(C)(C)C)n2)c1 [Compound 283, tert-butyl (S)-(1-(3-(3-methoxyphenyl)-1,2,4-oxadiazol-5-yl)ethyl)carbamate]
CC(=O)NC[C@@H](NC(=O)c1cc(C(F)(F)F)nn1C)c1nc(-c2cccc(F)c2)no1 [Compound 137]

IC50, ≥ 20000 nM:
C[C@@H](NC(=O)c1cn(C)nc1C(F)F)c1nc(-c2cccc(F)c2)no1 [Compound 187, (R)-3-(difluoromethyl)-N-(1-(3-(3-fluorophenyl)-1,2,4-oxadiazol-5-yl)ethyl)-1-methyl-1H-pyrazole-4-carboxamide]
Cc1ccnc(-c2noc([C@H](C)NC(=O)OC(C)(C)C)n2)c1 [Compound 285, tert-butyl (S)-(1-(3-(4-methylpyridin-2-yl)-1,2,4-oxadiazol-5-yl)ethyl)carbamate]
C[C@H](NC(=O)c1cc(C(F)(F)F)nn1C)c1nc(-c2ccnc(CS(C)(=O)=O)c2)no1 [Compound 264, 2-methyl-N-[(1S)-1-[3-[2-(methylsulfonylmethyl)-4-pyridyl]-1,2,4-oxadiazol-5-yl]ethyl]-5-(trifluoromethyl)pyrazole-3-carboxamide]

IC50, ≤ 1000 nM:
CC(NC(=O)c1cc(C(F)(F)F)nn1C)c1nc(-c2ccnc(C3CCC3)c2)no1 (single isomer, unassigned) [Compound 279]
Cn1nc(C(F)(F)F)cc1C(=O)NCc1nc(-c2ccnc(C(F)(F)F)c2)no1 [Compound 300, 2-methyl-5-(trifluoromethyl)-N-[[3-[2-(trifluoromethyl)-4-pyridyl]-1,2,4-oxadiazol-5-yl]methyl]pyrazole-3-carboxamide]
Cc1nn(C(C)C)cc1C(=O)N[C@@H](C)c1nc(-c2cc(F)cc(F)c2)no1 [Compound 92]
CCn1cc(C(=O)N[C@@H](C)c2nc(-c3cccc(F)c3)no2)c(C(F)(F)F)n1 [Compound 165]
C[C@H](NC(=O)c1ccnn1C1CC1)c1nc(-c2ccnc(C3CC3)c2)no1 [Compound 305, 2-cyclopropyl-N-[(1S)-1-[3-(2-cyclopropyl-4-pyridyl)-1,2,4-oxadiazol-5-yl]ethyl]pyrazole-3-carboxamide]
CC[C@H](NC(=O)c1ccnn1Cc1ccccc1)c1nc(-c2ccnc(C)c2)no1 [Compound 219, (S)-1-benzyl-N-(1-(3-(2-methylpyridin-4-yl)-1,2,4-oxadiazol-5-yl)propyl)-1H-pyrazole-5-carboxamide]
C[C@H](NC(=O)c1cc(C(F)(F)F)nn1CC(=O)N1CCCC1)c1nc(-c2ccnc(C(F)(F)F)c2)no1 [Compound 249, (S)-1-(2-oxo-2-(pyrrolidin-1-yl)ethyl)-3-(trifluoromethyl)-N-(1-(3-(2-(trifluoromethyl)pyridin-4-yl)-1,2,4-oxadiazol-5-yl)ethyl)-1H-pyrazole-5-carboxamide]
CC(NC(=O)c1cc(C(F)(F)F)nn1C)c1nc(-c2ccnc(N3CCCCC3)c2)no1 (single isomer, unassigned) [Compound 210]
COC(=O)c1cccc(-c2noc(C(C)NC(=O)c3cc(C(F)(F)F)nn3C)n2)c1 (stereo not drawn) [Compound 181, methyl 3-(5-(1-(1-methyl-3-(trifluoromethyl)-1H-pyrazole-5-carboxamido)ethyl)-1,2,4-oxadiazol-3-yl)benzoate]
CC(C)C(NC(=O)c1cc(C2CC2)nn1C)c1nc(-c2cccc(F)c2)no1 (stereo not drawn) [Compound 45]
C[C@H](NC(=O)c1cc(C(F)F)nn1C(F)F)c1nc(-c2cccc(F)c2)no1 [Compound 130]
Cn1nc(C(F)(F)F)cc1C(=O)NC1(c2nc(-c3cccc(F)c3)no2)CCOC1 (stereo not drawn) [Compound 149]
Cc1cccc(-c2noc(C(C)NC(=O)c3cc(C(C)(C)C)nn3C)n2)c1 (stereo not drawn) [Compound 13]
COc1cccc(-c2noc([C@H](C)NC(=O)c3cc(C(F)(F)F)nn3C)n2)c1 [Compound 196, (S)—N-(1-(3-(3-methoxyphenyl)-1,2,4-oxadiazol-5-yl)ethyl)-1-methyl-3-(trifluoromethyl)-1H-pyrazole-5-carboxamide]
COCC(NC(=O)c1cc(C(F)(F)F)nn1C)c1nc(-c2cccc(C)c2)no1 (stereo not drawn) [Compound 72]
C[C@H](NC(=O)c1cn(C)nc1C(F)F)c1nc(-c2ccnc(C(F)(F)F)c2)no1 [Compound 235]
CCc1cc(-c2noc([C@H](C)NC(=O)c3cc(C(F)(F)F)nn3C)n2)ccn1 [Compound 268, (S)—N-(1-(3-(2-ethylpyridin-4-yl)-1,2,4-oxadiazol-5-yl)ethyl)-1-methyl-3-(trifluoromethyl)-1H-pyrazole-5-carboxamide]
CCOc1cc(-c2noc([C@H](C)NC(=O)c3cc(C(F)(F)F)nn3C)n2)ccn1 [Compound 205, (S)—N-(1-(3-(2-ethoxypyridin-4-yl)-1,2,4-oxadiazol-5-yl)ethyl)-1-methyl-3-(trifluoromethyl)-1H-pyrazole-5-carboxamide]
CC[C@H](NC(=O)c1cc(C(F)(F)F)nn1C)c1nc(-c2ccnc(C3CC3)c2)no1 [Compound 248, (S)—N-(1-(3-(2-cyclopropylpyridin-4-yl)-1,2,4-oxadiazol-5-yl)propyl)-1-methyl-3-(trifluoromethyl)-1H-pyrazole-5-carboxamide]
C[C@H](NC(=O)c1cc(C(F)(F)F)nn1C)c1nc(-c2ccnc(C3CCCC3)c2)no1 [Compound 307, (S)—N-(1-(3-(2-cyclopentylpyridin-4-yl)-1,2,4-oxadiazol-5-yl)ethyl)-1-methyl-3-(trifluoromethyl)-1H-pyrazole-5-carboxamide]
C[C@H](NC(=O)c1cc(C(F)(F)F)nn1C)c1nc(-c2ccnc(OC3CC(F)(F)C3)c2)no1 [Compound 208, (S)—N-(1-(3-(2-(3,3-difluorocyclobutoxy)pyridin-4-yl)-1,2,4-oxadiazol-5-yl)ethyl)-1-methyl-3-(trifluoromethyl)-1H-pyrazole-5-carboxamide]
CC(C)Oc1cc(-c2noc([C@H](C)NC(=O)c3cc(-c4ccc(F)cc4)nn3C)n2)ccn1 [Compound 223, (S)-3-(4-fluorophenyl)-N-(1-(3-(2-isopropoxypyridin-4-yl)-1,2,4-oxadiazol-5-yl)ethyl)-1-methyl-1H-pyrazole-5-carboxamide]
CC[C@H](NC(=O)c1cc(C(F)F)nn1C)c1nc(-c2cccc(F)c2)no1 [Compound 120]
